Test results: ChEMBL document CHEMBL4800727 (2021)

Columns and labels:
Settings in all cases: Compound concentration 10.0 uM
[1] = target: Delta-type opioid receptor (Homo sapiens) (UniProt P41143)
[2] = target: 5-hydroxytryptamine receptor 5A (Homo sapiens) (UniProt P47898)
[3] = target: 5-hydroxytryptamine receptor 1B (Homo sapiens) (UniProt P28222)
[4] = target: Alpha-1A adrenergic receptor (Homo sapiens) (UniProt P35348)
[5] = target: cGMP-inhibited 3',5'-cyclic phosphodiesterase 3A (Homo sapiens, UniProt Q14432); assay: hPDE3A Cerep panel
[6] = target: Sodium-dependent serotonin transporter (Homo sapiens) (UniProt P31645)
[7] = target: T1, Muscarinic acetylcholine receptor M1 (Homo sapiens) (UniProt P11229)
T1 sequence (whole entry): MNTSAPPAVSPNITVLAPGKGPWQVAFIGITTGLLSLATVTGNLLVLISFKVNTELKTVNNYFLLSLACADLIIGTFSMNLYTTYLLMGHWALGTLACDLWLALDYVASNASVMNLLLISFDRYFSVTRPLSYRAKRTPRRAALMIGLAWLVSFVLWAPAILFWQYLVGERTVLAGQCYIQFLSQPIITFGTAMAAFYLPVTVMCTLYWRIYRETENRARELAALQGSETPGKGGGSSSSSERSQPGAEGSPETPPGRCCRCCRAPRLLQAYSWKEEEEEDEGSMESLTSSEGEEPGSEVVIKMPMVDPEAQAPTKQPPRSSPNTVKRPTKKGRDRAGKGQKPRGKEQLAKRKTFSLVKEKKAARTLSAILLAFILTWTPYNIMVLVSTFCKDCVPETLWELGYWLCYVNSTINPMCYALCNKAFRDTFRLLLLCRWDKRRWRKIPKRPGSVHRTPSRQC

[8] = target: GABA-A receptor; anion channel (Rattus norvegicus) (UniProt O09028+P15431+P18506+P18508+P19969+P20236+P23574+P23576+P28471+P28473+P30191+P62813+P63079+P63138+Q91ZM7+Q9ES14)
[9] = target: 5-hydroxytryptamine receptor 6 (Homo sapiens) (UniProt P50406)
[10] = target: T2, Muscarinic acetylcholine receptor M4 (Homo sapiens) (UniProt P08173)
T2 sequence (whole entry): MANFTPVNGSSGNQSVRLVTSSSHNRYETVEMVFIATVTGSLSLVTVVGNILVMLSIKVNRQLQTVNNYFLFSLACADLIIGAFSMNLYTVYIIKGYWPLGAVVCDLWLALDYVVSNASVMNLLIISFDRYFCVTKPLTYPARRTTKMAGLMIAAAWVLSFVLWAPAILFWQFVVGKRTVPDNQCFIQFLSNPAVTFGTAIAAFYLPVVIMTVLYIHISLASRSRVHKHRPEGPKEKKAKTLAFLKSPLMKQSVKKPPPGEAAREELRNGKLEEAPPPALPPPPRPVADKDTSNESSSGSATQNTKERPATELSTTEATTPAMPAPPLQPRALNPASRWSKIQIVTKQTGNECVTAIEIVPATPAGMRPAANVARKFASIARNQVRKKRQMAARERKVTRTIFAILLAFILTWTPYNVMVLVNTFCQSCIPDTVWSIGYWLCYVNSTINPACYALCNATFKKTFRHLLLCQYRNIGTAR

[11] = target: 5-hydroxytryptamine receptor 1D (Homo sapiens) (UniProt P28221)
[12] = target: D(1A) dopamine receptor (Homo sapiens) (UniProt P21728)
[13] = target: Serine/threonine-protein kinase MARK1 (Homo sapiens) (UniProt Q9P0L2); assay: MAP/microtubule affinity-regulating kinase 1 Millipore kinase panel
[14] = target: T3, 5-hydroxytryptamine receptor 1A (Homo sapiens) (UniProt P08908)
T3 sequence (whole entry): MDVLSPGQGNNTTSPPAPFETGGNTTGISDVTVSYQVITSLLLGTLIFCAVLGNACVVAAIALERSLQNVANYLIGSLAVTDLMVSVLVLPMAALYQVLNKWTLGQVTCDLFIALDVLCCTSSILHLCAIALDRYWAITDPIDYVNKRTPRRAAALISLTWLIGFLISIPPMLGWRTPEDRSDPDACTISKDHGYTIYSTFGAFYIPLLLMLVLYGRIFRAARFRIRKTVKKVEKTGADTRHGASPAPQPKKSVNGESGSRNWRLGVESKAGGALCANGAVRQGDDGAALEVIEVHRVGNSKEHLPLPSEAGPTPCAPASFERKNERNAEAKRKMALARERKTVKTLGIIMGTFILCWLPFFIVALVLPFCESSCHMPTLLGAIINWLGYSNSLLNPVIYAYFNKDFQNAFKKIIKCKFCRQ

[15] = target: T4, Alpha-1B adrenergic receptor (Homo sapiens) (UniProt P35368)
T4 sequence (whole entry): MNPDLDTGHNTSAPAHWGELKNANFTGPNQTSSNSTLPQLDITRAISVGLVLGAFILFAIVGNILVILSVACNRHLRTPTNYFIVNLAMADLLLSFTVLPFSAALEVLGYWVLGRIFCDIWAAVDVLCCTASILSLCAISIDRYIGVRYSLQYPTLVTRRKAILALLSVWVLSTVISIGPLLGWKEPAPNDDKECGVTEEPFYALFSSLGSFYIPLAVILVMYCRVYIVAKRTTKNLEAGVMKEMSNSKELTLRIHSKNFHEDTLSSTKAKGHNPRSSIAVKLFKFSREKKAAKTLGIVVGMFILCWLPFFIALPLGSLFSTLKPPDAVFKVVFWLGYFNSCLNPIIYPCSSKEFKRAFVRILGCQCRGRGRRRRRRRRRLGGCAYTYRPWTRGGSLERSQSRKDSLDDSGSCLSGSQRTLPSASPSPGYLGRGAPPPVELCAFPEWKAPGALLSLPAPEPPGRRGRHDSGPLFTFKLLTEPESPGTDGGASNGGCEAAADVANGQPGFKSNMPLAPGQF

[16] = target: Ephrin type-A receptor 5 (Homo sapiens) (UniProt P54756); assay: EPH receptor A5 Millipore kinase panel
[17] = target: Histamine H3 receptor (Homo sapiens) (UniProt Q9Y5N1)
[18] = target: Mu-type opioid receptor (Homo sapiens) (UniProt P35372)
[19] = target: Beta-1 adrenergic receptor (Homo sapiens) (UniProt P08588)
Chain of Beta-1 adrenergic receptor (Homo sapiens) (P08588 whole entry, looked up): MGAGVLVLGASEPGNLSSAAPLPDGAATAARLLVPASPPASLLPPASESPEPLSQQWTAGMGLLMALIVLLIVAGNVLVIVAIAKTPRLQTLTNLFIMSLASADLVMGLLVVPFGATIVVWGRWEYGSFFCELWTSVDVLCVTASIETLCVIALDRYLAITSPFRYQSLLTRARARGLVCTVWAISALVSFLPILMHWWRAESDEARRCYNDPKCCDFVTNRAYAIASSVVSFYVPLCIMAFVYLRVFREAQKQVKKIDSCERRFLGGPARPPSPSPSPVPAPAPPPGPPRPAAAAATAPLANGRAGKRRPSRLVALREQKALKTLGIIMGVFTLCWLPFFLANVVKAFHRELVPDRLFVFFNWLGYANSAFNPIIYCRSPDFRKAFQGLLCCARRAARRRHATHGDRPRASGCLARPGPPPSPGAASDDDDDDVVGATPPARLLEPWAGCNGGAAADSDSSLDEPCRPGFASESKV

Chain of 5-hydroxytryptamine receptor 6 (Homo sapiens) (P50406 whole entry): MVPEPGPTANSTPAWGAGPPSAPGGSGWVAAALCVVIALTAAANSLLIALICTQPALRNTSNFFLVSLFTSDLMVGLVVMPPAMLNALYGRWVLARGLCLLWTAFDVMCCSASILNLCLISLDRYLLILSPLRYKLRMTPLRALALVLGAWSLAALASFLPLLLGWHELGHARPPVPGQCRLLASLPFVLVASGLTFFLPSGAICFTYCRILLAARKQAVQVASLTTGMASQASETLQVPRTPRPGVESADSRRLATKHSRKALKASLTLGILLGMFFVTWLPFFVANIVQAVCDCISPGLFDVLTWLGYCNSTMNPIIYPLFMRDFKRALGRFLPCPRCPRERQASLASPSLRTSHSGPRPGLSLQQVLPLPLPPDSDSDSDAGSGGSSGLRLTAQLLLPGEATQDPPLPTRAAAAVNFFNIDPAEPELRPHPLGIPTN
Chain of Mu-type opioid receptor (Homo sapiens) (P35372 whole entry): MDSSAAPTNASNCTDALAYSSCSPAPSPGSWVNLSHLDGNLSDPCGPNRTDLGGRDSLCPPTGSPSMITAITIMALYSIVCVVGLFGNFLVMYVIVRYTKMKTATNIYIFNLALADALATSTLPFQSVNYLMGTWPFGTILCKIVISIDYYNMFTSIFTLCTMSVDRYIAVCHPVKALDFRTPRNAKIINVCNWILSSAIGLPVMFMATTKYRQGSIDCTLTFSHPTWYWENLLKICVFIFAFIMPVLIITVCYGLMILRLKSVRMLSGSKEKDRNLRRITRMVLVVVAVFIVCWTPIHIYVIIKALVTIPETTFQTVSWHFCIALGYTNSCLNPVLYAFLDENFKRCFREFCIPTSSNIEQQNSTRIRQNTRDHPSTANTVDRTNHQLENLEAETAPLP
Chain of Histamine H3 receptor (Homo sapiens) (Q9Y5N1 whole entry): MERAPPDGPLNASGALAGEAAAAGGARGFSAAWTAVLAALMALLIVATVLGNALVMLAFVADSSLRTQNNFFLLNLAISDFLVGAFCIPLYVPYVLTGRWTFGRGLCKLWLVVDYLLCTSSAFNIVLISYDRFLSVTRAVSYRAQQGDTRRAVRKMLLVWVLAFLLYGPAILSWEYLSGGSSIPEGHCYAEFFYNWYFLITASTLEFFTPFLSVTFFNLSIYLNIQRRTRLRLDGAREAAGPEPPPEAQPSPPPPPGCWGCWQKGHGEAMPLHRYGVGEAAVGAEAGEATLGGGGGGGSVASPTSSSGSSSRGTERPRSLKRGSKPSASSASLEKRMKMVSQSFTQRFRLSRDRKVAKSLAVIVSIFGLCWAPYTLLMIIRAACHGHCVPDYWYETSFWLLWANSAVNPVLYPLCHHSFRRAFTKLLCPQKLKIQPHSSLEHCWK
Chain of Sodium-dependent serotonin transporter (Homo sapiens) (P31645 whole entry, looked up): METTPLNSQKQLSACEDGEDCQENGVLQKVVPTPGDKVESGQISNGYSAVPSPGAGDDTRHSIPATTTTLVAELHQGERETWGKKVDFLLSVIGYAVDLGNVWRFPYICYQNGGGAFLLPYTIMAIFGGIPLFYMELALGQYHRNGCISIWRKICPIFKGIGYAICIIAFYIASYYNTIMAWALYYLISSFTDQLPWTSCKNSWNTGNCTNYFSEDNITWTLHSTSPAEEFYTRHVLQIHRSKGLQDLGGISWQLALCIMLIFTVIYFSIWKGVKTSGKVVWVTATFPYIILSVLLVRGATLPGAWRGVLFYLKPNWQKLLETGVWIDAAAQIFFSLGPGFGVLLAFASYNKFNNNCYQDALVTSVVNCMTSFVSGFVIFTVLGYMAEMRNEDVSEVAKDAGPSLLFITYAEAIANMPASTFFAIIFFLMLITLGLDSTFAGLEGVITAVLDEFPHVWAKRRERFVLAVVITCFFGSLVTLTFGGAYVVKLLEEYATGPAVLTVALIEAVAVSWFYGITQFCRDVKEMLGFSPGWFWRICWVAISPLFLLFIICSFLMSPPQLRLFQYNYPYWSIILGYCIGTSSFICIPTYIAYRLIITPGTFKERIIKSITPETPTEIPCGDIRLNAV
Chain of Delta-type opioid receptor (Homo sapiens) (P41143 whole entry): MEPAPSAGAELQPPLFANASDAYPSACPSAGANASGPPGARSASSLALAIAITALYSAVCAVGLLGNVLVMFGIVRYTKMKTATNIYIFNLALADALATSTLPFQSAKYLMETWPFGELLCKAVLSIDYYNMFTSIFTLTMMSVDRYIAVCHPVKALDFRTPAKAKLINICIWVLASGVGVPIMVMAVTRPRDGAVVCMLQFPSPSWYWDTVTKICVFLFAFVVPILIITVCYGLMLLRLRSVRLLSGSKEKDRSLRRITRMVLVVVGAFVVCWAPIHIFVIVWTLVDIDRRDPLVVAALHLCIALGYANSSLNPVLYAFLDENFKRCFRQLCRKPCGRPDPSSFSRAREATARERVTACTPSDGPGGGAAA
Chain of 5-hydroxytryptamine receptor 1B (Homo sapiens) (P28222 whole entry): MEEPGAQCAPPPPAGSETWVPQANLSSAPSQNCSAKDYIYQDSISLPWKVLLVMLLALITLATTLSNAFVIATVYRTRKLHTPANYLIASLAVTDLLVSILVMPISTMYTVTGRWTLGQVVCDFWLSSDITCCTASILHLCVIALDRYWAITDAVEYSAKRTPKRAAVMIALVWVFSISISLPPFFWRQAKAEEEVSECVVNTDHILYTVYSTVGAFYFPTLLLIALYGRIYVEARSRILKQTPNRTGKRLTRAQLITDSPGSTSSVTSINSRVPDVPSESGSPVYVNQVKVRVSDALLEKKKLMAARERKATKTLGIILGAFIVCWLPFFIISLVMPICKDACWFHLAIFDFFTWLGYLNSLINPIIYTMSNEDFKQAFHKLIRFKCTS
Chain of 5-hydroxytryptamine receptor 5A (Homo sapiens) (P47898 whole entry): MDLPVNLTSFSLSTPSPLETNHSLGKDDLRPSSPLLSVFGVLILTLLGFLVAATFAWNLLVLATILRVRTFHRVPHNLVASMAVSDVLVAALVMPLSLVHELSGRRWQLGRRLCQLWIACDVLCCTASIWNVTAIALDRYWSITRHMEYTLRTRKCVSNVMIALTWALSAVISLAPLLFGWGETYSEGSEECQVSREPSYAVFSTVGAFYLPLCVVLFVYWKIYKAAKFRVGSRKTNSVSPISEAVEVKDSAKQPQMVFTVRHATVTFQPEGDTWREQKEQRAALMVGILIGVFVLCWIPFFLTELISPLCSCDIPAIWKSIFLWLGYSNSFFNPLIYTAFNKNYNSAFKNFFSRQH
Chain of D(1A) dopamine receptor (Homo sapiens) (P21728 whole entry): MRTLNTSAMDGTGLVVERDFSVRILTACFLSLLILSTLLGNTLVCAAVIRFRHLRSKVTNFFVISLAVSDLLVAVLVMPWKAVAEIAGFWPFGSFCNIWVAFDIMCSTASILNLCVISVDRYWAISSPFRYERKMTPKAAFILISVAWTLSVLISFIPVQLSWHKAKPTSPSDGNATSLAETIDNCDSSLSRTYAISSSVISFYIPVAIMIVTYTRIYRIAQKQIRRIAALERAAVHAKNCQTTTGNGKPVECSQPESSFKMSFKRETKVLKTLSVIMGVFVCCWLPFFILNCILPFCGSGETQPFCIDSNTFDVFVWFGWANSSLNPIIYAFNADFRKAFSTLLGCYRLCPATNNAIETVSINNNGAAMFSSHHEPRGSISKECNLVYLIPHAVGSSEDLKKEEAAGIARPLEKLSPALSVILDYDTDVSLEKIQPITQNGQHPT
Chain of 5-hydroxytryptamine receptor 1D (Homo sapiens) (P28221 whole entry): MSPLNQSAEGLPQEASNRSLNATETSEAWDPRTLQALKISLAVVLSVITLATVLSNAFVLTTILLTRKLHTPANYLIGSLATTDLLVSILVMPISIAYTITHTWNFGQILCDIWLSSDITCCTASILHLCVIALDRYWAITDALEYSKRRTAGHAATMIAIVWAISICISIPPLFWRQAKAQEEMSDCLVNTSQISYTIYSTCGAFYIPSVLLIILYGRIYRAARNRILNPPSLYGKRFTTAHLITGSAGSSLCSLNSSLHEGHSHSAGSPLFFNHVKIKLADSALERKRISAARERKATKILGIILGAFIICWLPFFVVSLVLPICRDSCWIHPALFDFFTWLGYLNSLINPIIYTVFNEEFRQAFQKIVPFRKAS
Chain of Alpha-1A adrenergic receptor (Homo sapiens) (P35348 whole entry): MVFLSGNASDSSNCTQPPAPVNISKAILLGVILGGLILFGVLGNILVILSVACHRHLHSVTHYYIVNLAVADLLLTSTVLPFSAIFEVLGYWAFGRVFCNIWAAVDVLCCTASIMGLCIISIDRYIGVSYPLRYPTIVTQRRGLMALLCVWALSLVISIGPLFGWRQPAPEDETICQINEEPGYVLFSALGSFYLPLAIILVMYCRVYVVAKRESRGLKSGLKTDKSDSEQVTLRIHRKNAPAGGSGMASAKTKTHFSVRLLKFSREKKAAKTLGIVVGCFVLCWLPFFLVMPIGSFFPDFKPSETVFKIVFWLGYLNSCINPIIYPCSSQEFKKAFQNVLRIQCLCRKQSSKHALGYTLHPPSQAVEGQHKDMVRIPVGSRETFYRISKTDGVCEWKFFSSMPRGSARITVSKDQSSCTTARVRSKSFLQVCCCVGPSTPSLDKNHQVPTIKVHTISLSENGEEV

Compound	inhibition [1] [%]	inhibition [2] [%]	inhibition [3] [%]	inhibition [4] [%]	effect [5] [%]	inhibition [6] [%]	inhibition [7] [%]	inhibition [8] [%]	inhibition [9] [%]	inhibition [10] [%]	inhibition [11] [%]	inhibition [12] [%]	inhibition [13] [%]	inhibition [14] [%]	inhibition [15] [%]	inhibition [16] [%]	inhibition [17] [%]	inhibition [18] [%]	inhibition [19] [%]
COCCc1ccc(-c2c(C)nc3c(N4CCOCC4)ccnn23)cn1 [JNJ-42396302]	7.84	3.93	-0.76	23	6	0.57	2.83	0.32	18.5	5.21	11.5	2.41	-6	22.9	-8.94	-9	3.7	-1.51	3.43
c1ccc(C2CCN(c3cnc4c(N5CCOCC5)nccn34)CC2)cc1	2.73	19	8.68	22.5		3.12	23.7	59.8	-7.87	-5.45	1.09	10.6		25.7	0.45		7.29	19.6	23.5
